Assay results published in patent US4818753A, “Synthesis and method of use for 2, 4 diaminoquinazoline” (SRI International, priority 1987, dated 1989).
Converted amounts (≈) assume the structure as drawn.

System: Candida albicans (10231)
Experiment: Broth dilution assay, F1
Format: cell-based
Experimental: Both broth dilution and agar dilution assays were used to assess the antifungal activity of the compounds of the invention. The cultures were maintained in Sabouraud dextrose broth (SDB) and diluted with […]. 2.5 l of SDB was prepared and distributed into sterile vessels as follows: 49 ml into 1 vessel, 27 ml into 3 vessels, 45 ml into 2 vessels.
Five mg/ml concentration of each compound was prepared using DMSO as the solvent; warming and sonication were necessary to dissolve each compound completely. The compounds were then diluted in SDB according to the following protocol:
5. 1 ug/ml--5 ml (3)+45 ml SDB
The compound at each concentration in SDB was then dispensed into 6 tubes each containing 4 ml […]. Controls (without any compound) were also prepared to insure that the solvent itself was not fungicidal or fungistatic.
Cultures were grown in SDB for 24 h at 30° C. C. albicans and C. neoformans were diluted 1:10 in SDB before inoculation. Inoculation volume for yeasts was 2 drops of diluted cells per tube. The fungal cultures were homogenized before inoculation. The same volume was added, but without dilution. All tubes were incubated at room temperature on a rotating wheel. After 16 h of incubation at room temperature, the fungistatic assay was set up on agar plates. […] Yeasts were inoculated onto SDA (the corresponding agar) plates and fungi onto mycosel agar plates. These plates were then incubated at room temperature.

CCCCCCCCc1ccc2nc(N)nc(N)c2c1C [2,4-Diamino-5-methyl-6-n-octylquinazoline]
MFC (Table 2, F1, Sabouraud Dextrose Broth pH 5.5, read-out: C Fungicidal): 100 µg/mL (≈ 349 µM)
MIC (Table 2, F1, Sabouraud Dextrose Broth pH 5.5, read-out: S Fungistatic): 10 µg/mL (≈ 34.9 µM)
